From ChEMBL document CHEMBL5154884, “Discovery of a Novel Src Homology-2 Domain Containing Protein Tyrosine Phosphatase-2 (SHP2) and Cyclin-Dependent Kinase 4 (CDK4) Dual Inhibitor for the Treatment of Triple-Negative Breast Cancer” (J Med Chem, 2022)
The source made the active and inactive calls. No cut-off for these calls is given here.

Legend:
EMT6 = assay: Antitumor activity against mouse EMT6 cells implanted in BALB/c mouse syngenic model assessed as downregulation of pERK level in tumor at 20 mg/kg, po bid measured after 18 days by immunohistochemical analysis; assay type: functional, organism-based; settings: time 18.0 day
MDA-MB-231 = assay: Induction of cell cycle arrest in human MDA-MB-231 cells assessed as accumulation of cells in G0/G1 phase at 3 uM incubated for 48 hrs by RNase/propidium iodide staining based flow cytometry analysis (reference value: 26.2%); assay type: functional
[1] = Terminal half life in ICR mouse at 10 mg/kg, po measured upto 24 hrs by LC-MS/MS analysis; assay type: ADME, organism-based; settings: in vivo, read-out: beta t1/2 (converted)

Cc1nc2c(F)cc(-c3nc(Nc4nccc(Sc5cnc(N6CCC7(CC6)CO[C@@H](C)[C@H]7N)cn5)c4Cl)ncc3F)cc2n1C(C)C
Activity (EMT6): Active
Activity (MDA-MB-231): 58.9%
half-life [1]: 2.94 h
